Like-named read-outs stand apart in the source and are kept apart here. Square brackets hold non-standard residues; d marks the D form. Peptide text beside a SMILES is read from it. Nle = CCCC[C@H](N)C(=O)O; azaGly = NNC(=O)O
Assays:
[1] = system: rat pheochromocytoma PC12 cells; assay type: cell-based; design: Cells survival (%): concentration or dose not given beside the values; settings: for Cells survival (%): PC12, MTT
Protocol: Considering that self-assembly and aggregation of Aβ are key components of AD pathogenesis, the ability of azaGly-cyclopeptides 2-7 to reduce Aβ-induced toxicity was next tested in rat pheochromocytoma PC12 cells. Cells were incubated for 24 h with Aβ40 (10 μM) that had been aged for 48 h in the presence and absence of increasing concentrations of the azacyclopeptides. Cell viability was assessed using the 3-(4,5-dimethylthiazol-2-yl)-2,5-diphenyltetrazolium bromide (MTT) survival assay (Table 2). In this assay, viable cells reduce permeable MTT by active metabolism to produce a purple-colored formazan product with absorbance maximum near 570 nm. Dead cells lose the ability to convert MTT into formazan. The quantity of formazan is therefore directly proportional to the number of viable cells and measurable over time by recording changes in absorbance using a spectrophotometer. Neurons are susceptible to the lethal effects of misfolded proteins which are likely to aggregate at increased concentration. The pheochromocytoma (PC12) cell line is commonly used in in vitro studies to examine neuronal variation and neurotoxicity as a model of neurodegenerative disease.

Aβ40 = molecular target: T1, Aβ40 (Homo sapiens, UniProt P05067); experiment: Thioflavin T (ThT) fluorescence assay of Aβ40 aggregation; assay type: biochemical; settings: for Inhibition of amyloidogenic activity: Table 4; for Inhibition of amyloidogenic activity / Inhibition of amyloidogenic activity(%): ThT
T1 construct: The extent of Aβ40 aggregation in the presence of increasing concentrations of azacyclopeptides
T1 sequence (P05067 672-711 limits assumed): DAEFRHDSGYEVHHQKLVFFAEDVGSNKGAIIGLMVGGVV
Protocol: Amyloid generation can be identified and quantified using the thioflavin T (ThT) fluorescence dye assay. […] Agents that bind and inhibit aggregation of Aβ diminish ThT fluorescence relative to untreated Aβ. The extent of Aβ40 aggregation in the presence of increasing concentrations of azacyclopeptides and azasulfurylcyclopeptide 55 was evaluated by the ThT assay. Fluorescence of Aβ40 that was aged for 48 h was used as control, defined as 0% anti-amyloidogenic activity, and compared with fluorescence in the presence of cyclic peptide mimics at increasing concentrations to measure anti-amyloidogenic activity.

[2] = Aβ:peptide 1:1, 10 μM soluble Aβ40
[3] = Aβ:peptide 1:5, 10 μM soluble Aβ40
[4] = Aβ:peptide 1:10, 10 μM soluble Aβ40
[5] = Aβ:peptide 1:0.1, 10 μM soluble Aβ40

## c(D-Leu-L-Nle-D-Trp-L-His-Gly^-L-Lys) [Compound 55]
[1]; Table 5, Aβ:peptide 1:1
  Cells survival (%): 76.9%
[1]; Table 5, Aβ:peptide 1:5
  Cells survival (%): 106%

## c(D-Leu-L-Nle-D-Trp-L-His-D-Ser-Lys*) [Compound 8]
Aβ40; Aβ:peptide 1:1
  Inhibition of amyloidogenic activity: 54.4%
Aβ40; Aβ:peptide 1:5
  Inhibition of amyloidogenic activity: 77.8%
Aβ40; Aβ:peptide 1:10
  Inhibition of amyloidogenic activity: 80.9%
[1]; Table 4, Aβ:peptide 1:1
  Cells survival (%): 80.1%
[1]; Table 4, Aβ:peptide 1:5
  Cells survival (%): 91.3%

## CCCC[C@@H]1NC(=O)[C@@H](CC(C)C)NC(=O)[C@H](CCCCN)NC(=O)[C@@H](CO)NC(=O)NNC(=O)[C@@H](Cc2c[nH]c3ccccc23)NC1=O [Compound 4, c(D-Leu-L-Nle-D-Trp-Gly*-D-Ser-L-Lys)] (cyclo(K[dL][Nle][dW][azaGly][dS]))
Aβ40; [2]
  Inhibition of amyloidogenic activity(%): 50.2%
Aβ40; [3]
  Inhibition of amyloidogenic activity(%): 75%
Aβ40; [4]
  Inhibition of amyloidogenic activity(%): 68.8%

## c(D-Leu-L-Nle-D-Trp-L-His-Hse*-L-Lys) [Compound 9]
Aβ40; Aβ:peptide 1:1
  Inhibition of amyloidogenic activity: 8.3%
Aβ40; Aβ:peptide 1:5
  Inhibition of amyloidogenic activity: 77.9%
Aβ40; Aβ:peptide 1:10
  Inhibition of amyloidogenic activity: 77.2%
[1]; Table 4, Aβ:peptide 1:1
  Cells survival (%): 82.8%
[1]; Table 4, Aβ:peptide 1:5
  Cells survival (%): 97.9%

## c(Phe*-L-Nle-D-Trp-L-His-D-Ser-L-Lys) [Compound 19]
Aβ40; Table 5, Aβ:peptide 1:1
  Inhibition of amyloidogenic activity(%): 12.5%
Aβ40; Table 5, Aβ:peptide 1:5
  Inhibition of amyloidogenic activity(%): 54.5%
Aβ40; Table 5, Aβ:peptide 1:10
  Inhibition of amyloidogenic activity(%): 61.2%
[1]; Table 5, Aβ:peptide 1:1
  Cells survival (%): 73.0%
[1]; Table 5, Aβ:peptide 1:5
  Cells survival (%): 74.5%

## CC(C)C[C@H]1NC(=O)[C@H](CCCCN)NC(=O)[C@@H](CO)NC(=O)[C@H](Cc2c[nH]cn2)NC(=O)[C@@H](Cc2c[nH]c3ccccc23)NC(=O)NNC1=O [Compound 6, c(D-Leu-Gly*-D-Trp-L-His-D-Ser-L-Lys)] (cyclo(K[dL][azaGly][dW]H[dS]))
Aβ40; [3]
  Inhibition of amyloidogenic activity(%): 80.1%
Aβ40; [4]
  Inhibition of amyloidogenic activity(%): 81.8%
Aβ40; incubation with Aβ
  effect on lag phase and ThT fluorescence: dramatically prolonged the lag phase and reduced the ThT fluorescence

## CCCC[C@@H]1NC(=O)[C@@H](CC(C)C)NC(=O)[C@H](CCCCN)NC(=O)[C@@H](CO)NC(=O)[C@H](Cc2c[nH]cn2)NC(=O)[C@@H](Cc2c[nH]c3ccccc23)NC1=O [Compound 1, Cyclo-L-lysine-D-leucine-L-norleucine-D-tryptophan-L-histidine-D-serine, reference compound] (cyclo(K[dL][Nle][dW]H[dS]))
Aβ40; [2]
  Inhibition of amyloidogenic activity(%): 44.6%
Aβ40; [3]
  Inhibition of amyloidogenic activity(%): 84.7%
Aβ40; [4]
  Inhibition of amyloidogenic activity(%): 92.8%
Aβ40; Aβ:peptide 1:1
  Inhibition of amyloidogenic activity: 44.6%
Aβ40; Aβ:peptide 1:5
  Inhibition of amyloidogenic activity: 84.7%
Aβ40; Aβ:peptide 1:10
  Inhibition of amyloidogenic activity: 92.8%
Aβ40; Table 5, Aβ:peptide 1:1
  Inhibition of amyloidogenic activity(%): 44.6%
Aβ40; Table 5, Aβ:peptide 1:5
  Inhibition of amyloidogenic activity(%): 84.7%
Aβ40; Table 5, Aβ:peptide 1:10
  Inhibition of amyloidogenic activity(%): 92.8%

## c(D-Leu-L-Nle-D-Trp-Tal*-D-Ser-L-Lys) [Compound 13]
Aβ40; Aβ:peptide 1:1
  Inhibition of amyloidogenic activity: 58.0%
Aβ40; Aβ:peptide 1:5
  Inhibition of amyloidogenic activity: 72.6%
Aβ40; Aβ:peptide 1:10
  Inhibition of amyloidogenic activity: 78.4%
[1]; Table 4, Aβ:peptide 1:1
  Cells survival (%): 70.8%
[1]; Table 4, Aβ:peptide 1:5
  Cells survival (%): 96.3%

## CCCC[C@@H]1NC(=O)[C@@H](CC(C)C)NC(=O)NNC(=O)[C@@H](CO)NC(=O)[C@H](Cc2c[nH]cn2)NC(=O)[C@@H](Cc2c[nH]c3ccccc23)NC1=O [Compound 2, c(D-Leu-L-Nle-D-Trp-L-His-D-Ser-Gly*)] (cyclo([azaGly][dL][Nle][dW]H[dS]))
Aβ40; [5]
  Inhibition of amyloidogenic activity(%): 63.9%
Aβ40; [2]
  Inhibition of amyloidogenic activity(%): 76.7%
Aβ40; above stoichiometric concentrations
  effect on lag phase and ThT fluorescence: promoted significantly fibrilization of Aβ shortening the lag-phase and increasing ThT fluorescence
Aβ40; at and below stoichiometric concentrations
  effect on lag phase and ThT fluorescence: prolonged dramatically the lag-phase and reduced ThT fluorescence
[1]; 24 h
  cell survival: 87%

## c(Leu*-L-Nlc-D-Trp-L-His-D-Ser-L-Lys) [Compound 18]
Aβ40; Aβ:peptide 1:1
  Inhibition of amyloidogenic activity: 15.4%
Aβ40; Aβ:peptide 1:5
  Inhibition of amyloidogenic activity: 17.1%
Aβ40; Aβ:peptide 1:10
  Inhibition of amyloidogenic activity: 37.5%
[1]; Table 4, Aβ:peptide 1:1
  Cells survival (%): 72.8%
[1]; Table 4, Aβ:peptide 1:5
  Cells survival (%): 76.3%

## c(D-Leu-L-Nle-D-Trp-D-His-IPrTyr*-L-Lys) [Compound 11]
Aβ40; Table 5, Aβ:peptide 1:1
  Inhibition of amyloidogenic activity(%): 3.5%
Aβ40; Table 5, Aβ:peptide 1:5
  Inhibition of amyloidogenic activity(%): 54.7%
Aβ40; Table 5, Aβ:peptide 1:10
  Inhibition of amyloidogenic activity(%): 54.2%
[1]; Table 5, Aβ:peptide 1:1
  Cells survival (%): 72.4%
[1]; Table 5, Aβ:peptide 1:5
  Cells survival (%): 74.3%

## c(D-Leu-L-Nle-D-Trp-Pra*-D-Ser-L-Lys) [Compound 14]
Aβ40; Table 5, Aβ:peptide 1:1
  Inhibition of amyloidogenic activity(%): 76.9%
Aβ40; Table 5, Aβ:peptide 1:5
  Inhibition of amyloidogenic activity(%): 81.2%
Aβ40; Table 5, Aβ:peptide 1:10
  Inhibition of amyloidogenic activity(%): 81.4%
[1]; Table 5, Aβ:peptide 1:1
  Cells survival (%): 71.7%
[1]; Table 5, Aβ:peptide 1:5
  Cells survival (%): 83.5%

## c(D-Leu-L-Nle-D-Trp-Phe*-D-Ser-L-Lys) [Compound 12]
Aβ40; Table 5, Aβ:peptide 1:1
  Inhibition of amyloidogenic activity(%): 54.4%
Aβ40; Table 5, Aβ:peptide 1:5
  Inhibition of amyloidogenic activity(%): 77.7%
Aβ40; Table 5, Aβ:peptide 1:10
  Inhibition of amyloidogenic activity(%): 80.9%
[1]; Table 5, Aβ:peptide 1:1
  Cells survival (%): 70.1%
[1]; Table 5, Aβ:peptide 1:5
  Cells survival (%): 87.9%

## c(D-Leu-Phe*-D-Trp-L-His-D-Ser-L-Lys) [Compound 17]
Aβ40; Table 5, Aβ:peptide 1:1
  Inhibition of amyloidogenic activity(%): 3.5%
Aβ40; Table 5, Aβ:peptide 1:5
  Inhibition of amyloidogenic activity(%): 36.9%
Aβ40; Table 5, Aβ:peptide 1:10
  Inhibition of amyloidogenic activity(%): 79.8%
[1]; Table 5, Aβ:peptide 1:1
  Cells survival (%): 61.8%
[1]; Table 5, Aβ:peptide 1:5
  Cells survival (%): 69.5%

## CCCC[C@@H]1NC(=O)NNC(=O)[C@H](CCCCN)NC(=O)[C@@H](CO)NC(=O)[C@H](Cc2c[nH]cn2)NC(=O)[C@@H](Cc2c[nH]c3ccccc23)NC1=O [Compound 7, c(Gly*-L-Nle-D-Trp-L-His-D-Ser-L-Lys)] (cyclo(K[azaGly][Nle][dW]H[dS]))
Aβ40; [3]
  Inhibition of amyloidogenic activity(%): 78.8%
Aβ40; [4]
  Inhibition of amyloidogenic activity(%): 80.5%
Aβ40; incubation with Aβ
  effect on lag phase and ThT fluorescence: dramatically prolonged the lag phase and reduced the ThT fluorescence

## CCCC[C@@H]1NC(=O)[C@@H](CC(C)C)NC(=O)[C@H](CCCCN)NC(=O)[C@@H](CO)NC(=O)[C@H](Cc2c[nH]cn2)NC(=O)NNC1=O [Compound 5, c(D-Leu-L-Nle-Gly*-L-His-D-Ser-L-Lys)] (cyclo(K[dL][Nle][azaGly]H[dS]))
Aβ40; [5]
  Inhibition of amyloidogenic activity(%): 55.3%
Aβ40; [2]
  Inhibition of amyloidogenic activity(%): 89.8%
Aβ40; [3]
  Inhibition of amyloidogenic activity(%): 91.1%
Aβ40; [4]
  Inhibition of amyloidogenic activity(%): 90.8%
Aβ40; incubation with Aβ
  effect on lag phase and ThT fluorescence: dramatically prolonged the lag phase and reduced the ThT fluorescence

## c(D-Leu-L-Nle-D-Trp-L-His-IPrTyr*-L-Lys) [Compound 10]
Aβ40; Table 5, Aβ:peptide 1:1
  Inhibition of amyloidogenic activity(%): 8.2%
Aβ40; Table 5, Aβ:peptide 1:5
  Inhibition of amyloidogenic activity(%): 85.2%
Aβ40; Table 5, Aβ:peptide 1:10
  Inhibition of amyloidogenic activity(%): 86.2%
[1]; Table 5, Aβ:peptide 1:1
  Cells survival (%): 75.4%
[1]; Table 5, Aβ:peptide 1:5
  Cells survival (%): 83.4%

## c(D-Leu-L-Nle-Itr*-L-His-D-Ser-L-Lys) [Compound 15]
Aβ40; Aβ:peptide 1:1
  Inhibition of amyloidogenic activity: 78.0%
Aβ40; Aβ:peptide 1:5
  Inhibition of amyloidogenic activity: 81.6%
Aβ40; Aβ:peptide 1:10
  Inhibition of amyloidogenic activity: 86.1%
[1]; Table 4, Aβ:peptide 1:1
  Cells survival (%): 78.8%
[1]; Table 4, Aβ:peptide 1:5
  Cells survival (%): 71.7%

## c(4-Phe*-L-Nlc-D-Trp-L-His-D-Ser-L-Lys) [Compound 20]
Aβ40; Table 5, Aβ:peptide 1:1
  Inhibition of amyloidogenic activity(%): 1.6%
Aβ40; Table 5, Aβ:peptide 1:5
  Inhibition of amyloidogenic activity(%): 48.4%
Aβ40; Table 5, Aβ:peptide 1:10
  Inhibition of amyloidogenic activity(%): 68.4%
[1]; Table 5, Aβ:peptide 1:1
  Cells survival (%): 73.0%
[1]; Table 5, Aβ:peptide 1:5
  Cells survival (%): 84.9%

## c(D-Leu-Nle*-D-Trp-L-His-D-Ser-L-Lys) [Compound 16]
Aβ40; Aβ:peptide 1:1
  Inhibition of amyloidogenic activity: 72.9%
Aβ40; Aβ:peptide 1:5
  Inhibition of amyloidogenic activity: 76.4%
Aβ40; Aβ:peptide 1:10
  Inhibition of amyloidogenic activity: 85.1%
[1]; Table 4, Aβ:peptide 1:1
  Cells survival (%): 86.3%
[1]; Table 4, Aβ:peptide 1:5
  Cells survival (%): 94.5%
